Experimental findings from ChEMBL document CHEMBL1201862, “PubChem BioAssay data set” (2004) are described below.

Test systems include HT-29; U-251; SW-620; EKVX; LOX IMVI; OVCAR-4; MDA-N; ACHN; HOP-92; NCI-H460; OVCAR-5; CCRF-CEM; COLO 205; HCT-116; UACC-62; BT-549; SK-MEL-28; HL-60; NCI-H23; SR.
Common to all, as to test: inhibition of tumour cell growth, NCI panel, 48 h

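Dose response: 5 concentrations. Exposure: 48 h. Format: 96-well plates. Endpoint: linear interpolation; highest concentration if not reached. Here, GI50 denotes the concentration required for 50% inhibition of growth.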 Activity calls are given as the source filed them. Rule as the data show it: active = GI50 up to about 1.1 µM and inactive = higher. Residues, ends and D or L forms follow the SMILES beside them. *: point of attachment. Ethyl(2-NMe3+) = C[N+](C)(C)CC*; Boc = CC(C)(C)OC(=O)*

Consider `CCOc1cc2c(cc1O)C(=O)C[C@@H]1[C@@H]2CC[C@]2(C)[C@@H](O)CC[C@@H]12`, for which the GI50 was 6.87 µM (inactive) in the assay on HT-29; 0.173 µM (active) in the assay on U-251; 0.126 µM (active) with SW-620; 10.1 µM (inactive) with EKVX; 0.189 µM (active) in the assay with LOX IMVI; 35.1 µM (inactive) in the assay with OVCAR-4. Also, the GI50 was 0.0212 µM (active) in the assay with MDA-N; 0.168 µM (active) in the assay on ACHN; 9.06 µM (inactive) in the assay on HOP-92; 0.0982 µM (active) in the assay on NCI-H460; 20.6 µM (inactive) with OVCAR-5; 0.162 µM (active) in the assay with CCRF-CEM. Besides, the GI50 in the assay with COLO 205 was 20.5 µM (inactive); in the assay on HCT-116, 0.144 µM (active); with UACC-62, 0.0682 µM (active); in the assay with BT-549, 0.15 µM (active); with SK-MEL-28 it was 0.19 µM (active); in the assay on HL-60 it was 0.185 µM (active). Besides, the GI50 with NCI-H23 was 0.33 µM (active).

For `CC1=NN(c2ccccc2)C(=O)/C1=C1\SC(c2ccccc2)(c2ccccc2)c2ccccc21`, the GI50 in the assay with HT-29 was 67.9 µM (inactive); in the assay on U-251, 3.78 µM (inactive); in the assay with SW-620 it was > 100 µM (inactive); in the assay with EKVX, > 100 µM (inactive); with LOX IMVI, > 100 µM (inactive); in the assay with OVCAR-4 it was > 100 µM (inactive). Moreover, the GI50 with MDA-N, in the assay with ACHN, with HOP-92, in the assay with NCI-H460, with OVCAR-5 and in the assay with CCRF-CEM was > 100 µM (inactive) throughout. For the same compound, the GI50 is > 100 µM (inactive) in the assay with COLO 205; 50.4 µM (inactive) with HCT-116; > 100 µM (inactive) with UACC-62; > 100 µM (inactive) in the assay with BT-549; > 100 µM (inactive) in the assay with SK-MEL-28; > 100 µM (inactive) with HL-60. Further, the GI50 in the assay with NCI-H23 is > 100 µM (inactive).

As for `O=C(NC1=NC2C=CC([N+](=O)[O-])=CC2S1)C(=O)Nn1c(S)nc2ccccc2c1=O` (centres undefined), the GI50 in the assay on HT-29 was > 100 µM (inactive); in the assay with U-251, 66.7 µM (inactive); in the assay with SW-620 it was > 100 µM (inactive); in the assay with EKVX it was 33.7 µM (inactive); with LOX IMVI it was 67.3 µM (inactive); in the assay with OVCAR-4, 27.4 µM (inactive). Further, the GI50 in the assay on MDA-N was > 100 µM (inactive); in the assay with ACHN, 24.1 µM (inactive); with HOP-92, 29.4 µM (inactive); in the assay with NCI-H460, 80.5 µM (inactive); in the assay on OVCAR-5, > 100 µM (inactive); in the assay on CCRF-CEM it was 45.9 µM (inactive). Moreover, the GI50 with HCT-116 was 79.3 µM (inactive); with UACC-62, 92 µM (inactive); in the assay with BT-549, 65.8 µM (inactive); in the assay with SK-MEL-28, > 100 µM (inactive); with HL-60, 56.4 µM (inactive); in the assay with NCI-H23, 40.7 µM (inactive).

Turning to `CNc1cc(OCc2ccccc2)c(OC)cc1C(=O)N1CCC[C@H]1CO`, the GI50 is > 100 µM (inactive) in the assay on HT-29; > 100 µM (inactive) with U-251; > 100 µM (inactive) with SW-620; > 100 µM (inactive) in the assay on EKVX; > 100 µM (inactive) in the assay on LOX IMVI; 70.1 µM (inactive) in the assay on OVCAR-4. Moreover, the GI50 with MDA-N was > 100 µM (inactive); in the assay on ACHN it was > 100 µM (inactive); with OVCAR-5, > 100 µM (inactive); with CCRF-CEM, 81.5 µM (inactive); in the assay with COLO 205 it was > 100 µM (inactive); in the assay with HCT-116, > 100 µM (inactive). The GI50 in the assay with UACC-62 was > 100 µM (inactive); in the assay with BT-549 it was > 100 µM (inactive); with SK-MEL-28, > 100 µM (inactive); in the assay on HL-60 it was 44.1 µM (inactive); in the assay on NCI-H23, > 100 µM (inactive).

For `COC(=O)CCC1=CCC2(SC)C(=O)Nc3cccc1c32` (centres undefined), the GI50 in the assay on HT-29 was > 100 µM (inactive); in the assay on U-251 it was > 100 µM (inactive); with SW-620 it was > 100 µM (inactive); with EKVX it was 65.3 µM (inactive); in the assay on LOX IMVI, > 100 µM (inactive); in the assay on OVCAR-4, > 100 µM (inactive). The GI50 with SR, in the assay with ACHN, with HOP-92, in the assay on NCI-H460, with OVCAR-5 and in the assay with CCRF-CEM was > 100 µM (inactive) in each case. Besides, the GI50 in the assay with COLO 205, with HCT-116, in the assay with UACC-62, with BT-549, in the assay on SK-MEL-28 and in the assay with HL-60 was > 100 µM (inactive) each time. Moreover, the GI50 with NCI-H23 was > 100 µM (inactive).

In the case of `OCCSCc1cc2c(O)c(c1)Cc1cc(CSCCO)cc(c1O)Cc1cc(CSCCO)cc(c1O)Cc1cc(CSCCO)cc(c1O)C2`, the GI50 is 2.88 µM (inactive) in the assay with HT-29; 4.48 µM (inactive) in the assay on U-251; 3.92 µM (inactive) in the assay with SW-620; 15 µM (inactive) with EKVX; 3.44 µM (inactive) in the assay on LOX IMVI; 3.61 µM (inactive) with OVCAR-4. For the same compound, the GI50 with MDA-N was 3.42 µM (inactive); in the assay with ACHN, 3.19 µM (inactive); with HOP-92, 4.26 µM (inactive); in the assay on NCI-H460, 2.89 µM (inactive); with OVCAR-5 it was 5.6 µM (inactive); in the assay on CCRF-CEM, 5.35 µM (inactive). Moreover, the GI50 with COLO 205 was 2.68 µM (inactive); in the assay with HCT-116, 4.02 µM (inactive); with BT-549 it was 3.3 µM (inactive); with SK-MEL-28 it was 3.56 µM (inactive); in the assay on HL-60 it was 4.04 µM (inactive); with NCI-H23, 5.37 µM (inactive).

For the compound `N#CSc1ccc(S(N)(=O)=O)cc1`, the GI50 in the assay with HT-29 is 82 µM (inactive); in the assay on U-251, 17.4 µM (inactive); with SW-620, 23.9 µM (inactive); in the assay on EKVX it was > 100 µM (inactive); in the assay on LOX IMVI, 31.3 µM (inactive); with OVCAR-4 it was 30.3 µM (inactive). Further, the GI50 in the assay on MDA-N was 33.2 µM (inactive); in the assay with ACHN it was 29.6 µM (inactive); in the assay with HOP-92 it was > 100 µM (inactive); in the assay on NCI-H460 it was > 100 µM (inactive); with OVCAR-5, 59.8 µM (inactive); in the assay with CCRF-CEM it was 8.07 µM (inactive). Also, the GI50 in the assay on COLO 205 was 71.1 µM (inactive); with HCT-116, 44.5 µM (inactive); with UACC-62, 70 µM (inactive); in the assay with BT-549, > 100 µM (inactive); in the assay with SK-MEL-28, 76.7 µM (inactive); in the assay with HL-60, 14.3 µM (inactive). Further, the GI50 in the assay on NCI-H23 is > 100 µM (inactive).

`COc1ccc(CC2c3cc(OC)c(OC)cc3CC[N+]2(C)C)cc1OC` (centres undefined): the GI50 in the assay on HT-29, in the assay on U-251, in the assay on SW-620, in the assay on EKVX, with LOX IMVI and in the assay on OVCAR-4 was > 100 µM (inactive) in each case. The GI50 in the assay on MDA-N, with ACHN, in the assay on HOP-92, with NCI-H460, with OVCAR-5 and in the assay with CCRF-CEM was > 100 µM (inactive) each time. Further, the GI50 in the assay on COLO 205, in the assay on HCT-116, in the assay on UACC-62, with BT-549, in the assay on SK-MEL-28 and in the assay on HL-60 was > 100 µM (inactive) throughout. The GI50 in the assay on NCI-H23 was > 100 µM (inactive).

Consider `CC(NC(=O)C(Cc1ccc(OCC[N+](C)(C)C)cc1)NC(=O)OC(C)(C)C)C(=O)NC(Cc1ccccc1)C(=O)NCC(N)=O` (centres undefined) (Boc-Y(Ethyl(2-NMe3+))AFG-NH2; configuration not given here), for which the GI50 was > 100 µM (inactive) in the assay on HT-29; 3.24 µM (inactive) in the assay with U-251; > 100 µM (inactive) in the assay on SW-620; 30.4 µM (inactive) in the assay on LOX IMVI; 38.1 µM (inactive) in the assay on OVCAR-4; > 100 µM (inactive) with MDA-N. For the same compound, the GI50 was 22.1 µM (inactive) in the assay with ACHN; 15.7 µM (inactive) in the assay with HOP-92; 70.5 µM (inactive) in the assay on NCI-H460; 25.1 µM (inactive) in the assay on OVCAR-5; 75.7 µM (inactive) with COLO 205; 34.9 µM (inactive) in the assay on HCT-116. The GI50 is 25.9 µM (inactive) with UACC-62; 20.2 µM (inactive) in the assay on BT-549; > 100 µM (inactive) with SK-MEL-28; > 100 µM (inactive) in the assay with HL-60; 15.5 µM (inactive) with NCI-H23.

Consider `COC(=O)[C@]12CCC(C)(C)C[C@H]1[C@H]1C(=O)C=C3[C@@]4(C)C=C(C#N)C(=O)C(C)(C)[C@@H]4CC[C@@]3(C)[C@]1(C)CC2` [BARDOXOLONE METHYL], for which the GI50 in the assay with HT-29 is 0.0552 µM (active); with U-251, 0.0232 µM (active); in the assay on SW-620, 0.0219 µM (active); in the assay on EKVX, 0.0395 µM (active); in the assay on LOX IMVI it was 0.0129 µM (active); with OVCAR-4 it was 0.162 µM (active). The GI50 in the assay on SR is 0.0245 µM (active); in the assay on ACHN it was 0.0285 µM (active); with HOP-92, 0.0769 µM (active); with NCI-H460, 0.0205 µM (active); with OVCAR-5 it was 0.04 µM (active); in the assay on CCRF-CEM it was < 0.01 µM (active). Moreover, the GI50 in the assay on COLO 205 is 0.0199 µM (active); with HCT-116, 0.0131 µM (active); in the assay on UACC-62 it was 0.0145 µM (active); in the assay on BT-549 it was 0.0339 µM (active); in the assay with SK-MEL-28, 0.0759 µM (active); in the assay with HL-60 it was < 0.0138 µM (active). The GI50 in the assay with NCI-H23 is 0.0156 µM (active).
